Source: PubChem BioAssay AID256 (DTP/NCI, 2004)
Where “and” joins values, the source holds several entries; their conditions need not be identical. Equal entries are not always repeated. Inconclusive results and toxic doses are left out.

Tested on: CD2F1 mice, L1210 leukemia ip, survival T/C
Assay: NCI In Vivo Anticancer Drug Screen. Data for tumor model L1210 Leukemia (intraperitoneal) in CD2F1 (CDF1) mice
Conditions: higher = longer survival
Procedure, shortened: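 Each value reflects a quotient of treated over vehicle control outcomes in mice with a transplanted tumor.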

[1] = endpoint: mean survival time, dose: 100.0 mg/kg/injection, schedule: Q01DX009 (ip), vehicle: saline with Tween-80
[2] = endpoint: mean survival time, dose: 200.0 mg/kg/injection, schedule: Q01DX009 (ip), vehicle: saline with Tween-80
[3] = endpoint: mean survival time, dose: 100.0 mg/kg/injection, schedule: Q04DX002 (ip), vehicle: saline
[4] = endpoint: mean survival time, dose: 100.0 mg/kg/injection, schedule: Q04DX003 (ip), vehicle: saline with Tween-80
[5] = endpoint: mean survival time, dose: 200.0 mg/kg/injection, schedule: Q04DX003 (ip), vehicle: saline with Tween-80
[6] = endpoint: mean survival time, dose: 400.0 mg/kg/injection, schedule: Q04DX003 (ip), vehicle: saline with Tween-80
[7] = endpoint: mean survival time, dose: 100.0 mg/kg/injection, schedule: Q01DX009 (ip), vehicle: saline
[8] = endpoint: mean survival time, dose: 200.0 mg/kg/injection, schedule: Q01DX009 (ip), vehicle: saline
[9] = endpoint: mean survival time, dose: 100.0 mg/kg/injection, schedule: Q04DX003 (ip), vehicle: acetone
[10] = endpoint: mean survival time, dose: 400.0 mg/kg/injection, schedule: Q01DX009 (ip), vehicle: saline with Tween-80
[11] = endpoint: mean survival time, dose: 100.0 mg/kg/injection, schedule: Q04DX003 (ip), vehicle: saline
[12] = endpoint: mean survival time, dose: 200.0 mg/kg/injection, schedule: Q04DX003 (ip), vehicle: saline
[13] = endpoint: mean survival time, dose: 400.0 mg/kg/injection, schedule: Q04DX003 (ip), vehicle: saline

O=C1NCC(Br)C(=O)N1 (configuration not stated)
T/C (endpoint: mean survival time, dose: 6.25 mg/kg/injection, schedule: Q01DX009 (ip), vehicle: saline + Tween-80 + alcohol): 102 % of control | T/C (endpoint: mean survival time, dose: 12.5 mg/kg/injection, schedule: Q01DX009 (ip), vehicle: saline + Tween-80 + alcohol): 100 % of control and 109 % of control | T/C (endpoint: mean survival time, dose: 12.5 mg/kg/injection, schedule: Q01DX009 (ip), vehicle: saline with Tween-80): 93 % of control | T/C (endpoint: mean survival time, dose: 25.0 mg/kg/injection, schedule: Q01DX009 (ip), vehicle: saline + Tween-80 + alcohol): 93 % of control and 100 % of control | T/C (endpoint: mean survival time, dose: 25.0 mg/kg/injection, schedule: Q01DX009 (ip), vehicle: saline with Tween-80): 96 % of control | T/C (endpoint: mean survival time, dose: 50.0 mg/kg/injection, schedule: Q01DX009 (ip), vehicle: saline + Tween-80 + alcohol): 102 % of control | T/C (endpoint: mean survival time, dose: 50.0 mg/kg/injection, schedule: Q01DX009 (ip), vehicle: saline with Tween-80): 94 % of control | T/C (endpoint: mean survival time, dose: 100.0 mg/kg/injection, schedule: Q01DX009 (ip), vehicle: saline + Tween-80 + alcohol): 101 % of control and 105 % of control | T/C [1]: 102 % of control | T/C (endpoint: mean survival time, dose: 200.0 mg/kg/injection, schedule: Q01DX009 (ip), vehicle: saline + Tween-80 + alcohol): 113 % of control and 100 % of control | T/C [2]: 90 % of control | T/C (endpoint: mean survival time, dose: 400.0 mg/kg/injection, schedule: Q01DX009 (ip), vehicle: saline + Tween-80 + alcohol): 86 % of control

CN(C)C1CCCC(OC(=O)c2ccccc2)C1 (configuration not stated)
T/C (endpoint: mean survival time, dose: 25.0 mg/kg/injection, schedule: Q04DX002 (ip), vehicle: saline): 97 % of control | T/C (endpoint: mean survival time, dose: 50.0 mg/kg/injection, schedule: Q04DX002 (ip), vehicle: saline): 105 % of control | T/C (endpoint: mean survival time, dose: 100.0 mg/kg/injection, schedule: Q01DX001 (ip), vehicle: saline): 101 % of control | T/C [3]: 94 % of control | T/C (endpoint: mean survival time, dose: 200.0 mg/kg/injection, schedule: Q01DX001 (ip), vehicle: saline): 100 % of control

COc1cccc2c1C(=O)c1c(O)c3c(c(O)c1C2=O)CC(O)(C(=O)CO)CC3OC1CC(N)C(O)C(C)O1.[Cl][Pt+2][Cl].[NH2-].[NH2-] (configuration not stated)
T/C (endpoint: median survival time, dose: 4.0 mg/kg/injection, schedule: Q04DX003 (ip), vehicle: DMSO): 152 % of control | T/C (endpoint: median survival time, dose: 8.0 mg/kg/injection, schedule: Q04DX003 (ip), vehicle: DMSO): 153 % of control and 154 % of control

COc1ccc2c(c1C)Cc1ccccc1C2=O
T/C [4]: 90 % of control | T/C [5]: 89 % of control | T/C [6]: 97 % of control

CC(C)CCCCCCCCCCCCC(=O)NCC(=O)NC1C(C)OC(Nc2ncnc3nc[nH]c23)C(O)C1O (configuration not stated)
T/C (endpoint: mean survival time, dose: 0.25 mg/kg/injection, schedule: Q01DX009 (ip), vehicle: distilled water + Tween-80): 100 % of control and 102 % of control | T/C (endpoint: mean survival time, dose: 0.5 mg/kg/injection, schedule: Q01DX009 (ip), vehicle: distilled water + Tween-80): 96 % of control and 100 % of control | T/C (endpoint: mean survival time, dose: 1.0 mg/kg/injection, schedule: Q01DX009 (ip), vehicle: distilled water + Tween-80): 96 % of control and 104 % of control | T/C (endpoint: mean survival time, dose: 2.0 mg/kg/injection, schedule: Q01DX009 (ip), vehicle: distilled water + Tween-80): 98 % of control and 107 % of control | T/C (endpoint: mean survival time, dose: 4.0 mg/kg/injection, schedule: Q01DX009 (ip), vehicle: distilled water + Tween-80): 96 % of control and 106 % of control | T/C (endpoint: mean survival time, dose: 8.0 mg/kg/injection, schedule: Q01DX009 (ip), vehicle: distilled water + Tween-80): 94 % of control and 102 % of control

O=C(O)C1(C(=O)O)CCC1
T/C [3]: 92 % of control | T/C (endpoint: mean survival time, dose: 200.0 mg/kg/injection, schedule: Q04DX002 (ip), vehicle: saline): 111 % of control

Cc1ccn(C)c(=O)c1
T/C [7]: 103 % of control | T/C [8]: 104 % of control | T/C (endpoint: mean survival time, dose: 400.0 mg/kg/injection, schedule: Q01DX009 (ip), vehicle: saline): 101 % of control

Cc1cccc2c1CCC(OC(=O)c1cc([N+](=O)[O-])cc([N+](=O)[O-])c1)C2 (configuration not stated)
T/C [1]: 92 % of control | T/C [9]: 98 % of control | T/C (endpoint: mean survival time, dose: 200.0 mg/kg/injection, schedule: Q04DX003 (ip), vehicle: acetone): 108 % of control | T/C [5]: 89 % of control | T/C [10]: 97 % of control | T/C (endpoint: mean survival time, dose: 400.0 mg/kg/injection, schedule: Q04DX003 (ip), vehicle: acetone): 101 % of control

OCC1OC(n2cnc3c(NO)nc(NO)nc32)C(O)C1O (configuration not stated)
T/C (endpoint: mean survival time, dose: 2.25 mg/kg/injection, schedule: Q01DX009 (ip), vehicle: saline): 115 % of control | T/C (endpoint: mean survival time, dose: 4.5 mg/kg/injection, schedule: Q01DX009 (ip), vehicle: saline): 116 % of control | T/C (endpoint: mean survival time, dose: 9.0 mg/kg/injection, schedule: Q01DX009 (ip), vehicle: saline): 116 % of control | T/C (endpoint: mean survival time, dose: 18.0 mg/kg/injection, schedule: Q01DX009 (ip), vehicle: saline): 122 % of control | T/C (endpoint: mean survival time, dose: 36.0 mg/kg/injection, schedule: Q01DX009 (ip), vehicle: saline): 192 % of control | T/C (endpoint: median survival time, dose: 36.0 mg/kg/injection, schedule: Q01DX009 (ip), vehicle: saline): 178 % of control | T/C (endpoint: median survival time, dose: 54.0 mg/kg/injection, schedule: Q01DX009 (ip), vehicle: saline): 188 % of control | T/C (endpoint: median survival time, dose: 72.0 mg/kg/injection, schedule: Q01DX009 (ip), vehicle: saline): 202 % of control

CCN1C(=O)/C(=C\C=C2/SCCN2C)OC1=S
T/C (endpoint: mean survival time, dose: 75.0 mg/kg/injection, schedule: Q01DX001 (ip), vehicle: other): 92 % of control | T/C (endpoint: mean survival time, dose: 150.0 mg/kg/injection, schedule: Q01DX001 (ip), vehicle: other): 100 % of control | T/C (endpoint: mean survival time, dose: 300.0 mg/kg/injection, schedule: Q01DX001 (ip), vehicle: other): 94 % of control

Clc1nc2ccccc2nc1CI
T/C [9]: 100 % of control

CN=C(NC)N/N=C(/c1ccc(Br)cc1)c1ccc(C(F)(F)F)cc1
T/C (endpoint: mean survival time, dose: 12.5 mg/kg/injection, schedule: Q04DX002 (ip), vehicle: saline with Tween-80): 90 % of control | T/C (endpoint: mean survival time, dose: 25.0 mg/kg/injection, schedule: Q04DX002 (ip), vehicle: saline with Tween-80): 90 % of control | T/C (endpoint: mean survival time, dose: 50.0 mg/kg/injection, schedule: Q04DX003 (ip), vehicle: saline with Tween-80): 98 % of control | T/C (endpoint: mean survival time, dose: 100.0 mg/kg/injection, schedule: Q01DX001 (ip), vehicle: saline sonified): 97 % of control | T/C (endpoint: mean survival time, dose: 200.0 mg/kg/injection, schedule: Q01DX001 (ip), vehicle: saline sonified): 93 % of control

CCCC(NC(=O)CN)C(=O)O (configuration not stated)
T/C [11]: 100 % of control | T/C [12]: 97 % of control | T/C [13]: 102 % of control

CCCC(=O)N(CC)CC
T/C (endpoint: mean survival time, dose: 50.0 mg/kg/injection, schedule: Q01DX009 (ip), vehicle: saline): 94 % of control | T/C [7]: 98 % of control | T/C [8]: 98 % of control

CC1CNC(Cl)O1 (configuration not stated)
T/C [4]: 87 % of control | T/C [5]: 105 % of control

O=C(O)/C(=C\c1ccccc1)NC(=O)c1ccccc1
T/C [1]: 95 % of control | T/C [2]: 96 % of control | T/C [10]: 105 % of control

O=P(N1CCCCCC1)(N1CCCCCC1)N1CCCCCC1.O=[N+]([O-])O.O=[N+]([O-])O.[O]=[U]=[O]
T/C (endpoint: mean survival time, dose: 6.25 mg/kg/injection, schedule: Q04DX003 (ip), vehicle: Klucel (hydroxypropylcellulose) (HPC)): 109 % of control

Cc1cc(C)[nH]c(=O)n1
T/C [11]: 94 % of control | T/C [12]: 102 % of control | T/C [13]: 94 % of control

COC(=O)Nc1cccc(OC(=O)N(C(C)C)C(C)C)c1
T/C [4]: 94 % of control | T/C [5]: 97 % of control | T/C [6]: 96 % of control

CCCCCC(=O)COCC
T/C [4]: 103 % of control | T/C [5]: 91 % of control | T/C [6]: 103 % of control

Cc1cn(C2OC3COC2C3O)c(=O)[nH]c1=O (configuration not stated)
T/C (endpoint: median survival time, dose: 12.5 mg/kg/injection, schedule: Q01DX005 (ip), vehicle: saline with Tween-80): 97 % of control | T/C (endpoint: median survival time, dose: 25.0 mg/kg/injection, schedule: Q01DX005 (ip), vehicle: saline with Tween-80): 97 % of control | T/C (endpoint: median survival time, dose: 50.0 mg/kg/injection, schedule: Q01DX005 (ip), vehicle: saline with Tween-80): 94 % of control | T/C (endpoint: median survival time, dose: 100.0 mg/kg/injection, schedule: Q01DX005 (ip), vehicle: saline with Tween-80): 102 % of control | T/C (endpoint: median survival time, dose: 200.0 mg/kg/injection, schedule: Q01DX005 (ip), vehicle: saline with Tween-80): 105 % of control
